Results on two compounds are retold here after article PMC3949622, “Macrocyclic Pyridyl Polyoxazoles: Structure-Activity Studies of the Aminoalkyl Side-Chain on G-Quadruplex Stabilization and Cytotoxic Activity” (Molecules, 2013).

For orientation: IC50 means the concentration at which inhibition is half-maximal.

Test [1] concerns human telomeric sequence d[T2G3(T2AG3)3A] (hTel) quadruplex DNA. To be noted: change in transition temperature of hTel quadruplex DNA; ref [21]; cited from earlier work. As to the method: Table 1 Effect of various pyridyl polyoxazoles on the thermal stabilities of duplex and quadruplex DNA. | column: hTel -Quadruplex DNA / ΔTtran (°C)^a || The results observed with the hTel quadruplex DNA however, stand in stark contrast with the ST duplex DNA results. In the series of three 4-phenyl substituted analogs compound 8 and 11 strongly stabilize G-quadruplex DNA by 20.5 and 24.6 °C respectively. Compound 8 has the tertiary amine directly connected to the phenyl while in 11 the amine is separated from the phenyl ring by two methylene groups. In contrast, the 3-dimethylaminopropyl analog 12 stabilizes G-quadruplex DNA to a much lesser extent. When the side-chain is attached to the 5-position of the phenyl ring the results are quite dram ...

In test [2] the test system is Salmon testes (ST) duplex DNA. To be noted: change in transition temperature of ST duplex DNA; ref [21]; cited from earlier work. An excerpt: Table 1 Effect of various pyridyl polyoxazoles on the thermal stabilities of duplex and quadruplex DNA. | column: Salmon Testes Duplex DNA / ΔTtran (°C) ^a
Test [3] has as its system RPMI 8402 cells. To be noted: ref [21], cited from earlier work. An excerpt:
(§1) Table 2 Relative cytotoxic activities. IC50 values (μM) ^a. | column: RPMI 8402 || The development of G-quadruplex stabilizers as a potential new class of anticancer agents hinges on the ability to design compounds that stabilize only G-quadruplexes and not other nucleic acid structures such as duplex or triplex DNA [15]. While a diverse array of compounds have been reported to stabilize G-quadruplex DNA [1], most also have some ability to stabilize duplex DNA. The natural product telomestatin for example, is reported to stabilize G-quadruplex DNA with 70:1 selectivity over duplex DNA [16, 17]. In contrast, the synthetic macrocyclic hexaoxazole HXDV (Figure 1) demonst ...

In test [4] the test system is KB3-1 cells. To be noted: ref [21], cited from earlier work.
Description: as §1, with “KB3-1 wt.” for “RPMI 8402”

The test system of test [5] is human breast cancer xenograft (MDA-MB-435). To be noted: MDA-MB-435 xenograft in athymic nude mice; ref [21]; cited from earlier work. The text has this:
(§2) The development of G-quadruplex stabilizers as a potential new class of anticancer agents hinges on the ability to design compounds that stabilize only G-quadruplexes and not other nucleic acid structures such as duplex or triplex DNA [15]. While a diverse array of compounds have been reported to stabilize G-quadruplex DNA [1], most also have some ability to stabilize duplex DNA. The natural product telomestatin for example, is reported to stabilize G-quadruplex DNA with 70:1 selectivity over duplex DNA [16, 17]. In contrast, the synthetic macrocyclic hexaoxazole HXDV (Figure 1) demonst ...

Test [6] concerns RPMI 8402 cells. Kind of test: MTT cytotoxicity assay, RPMI 8402. The format is cell-based, human. To be noted: continuous exposure for four days, means of at least two determinations ± standard deviation. As to the method:
(§3) Each N,N-dimethylamino-substituted macrocycle was also evaluated for cytotoxic activity against a human lymphoblastoma RPMI 8402 and a human epidermoid carcinoma KB3-1 cell line (Table 2). The results from these assays are informative about the relationship of structure to cytotoxic activity among the PyPX macrocyclic G-quadruplex stabilizers. […] An explanation for this observation is not clear at this time. The three-carbon analogs 12 and 22 have nearly equivalent activity at both positions, but these longer-chain analogs are generally lower in activity than the two-carbon analogs. Attachment of the dimethylamino group directly to the phenyl ring (8 and 19) leads to compounds having the greatest cytotoxic potency at their respective points of attachment. […] In general analogs that have an even number (0 or 2) of methylene spacer groups are more cytotoxic than those with an odd number. […] Moving the side-chain away from the phenyl ring and onto an oxazole ring also fails to improve cytotoxic activity.
(§4) Cytotoxicity was determined using the MTT-microtiter plate tetrazolinium assay (MTA). The human lymphoblast RPMI 8402 cell line was provided by Dr. Toshiwo Andoh (Aichi Cancer Center Research Institute, Nagoya, Japan). The KB3-1 cell line was obtained from K.V. Chin (The Cancer Institute of New Jersey, New Brunswick, NJ, USA). The cytotoxicity assay was performed using 96-well microtiter plates. Cells were grown in suspension at 37 °C in 5% CO2 and maintained by regular passage in RPMI medium supplemented with 10% heat inactivated fetal bovine serum, L-glutamine (2 mM), penicillin (100 U/mL), and Streptomycin (0.1 mg/mL). For determination of IC50 values, cells were exposed continuously for four days to varying concentrations of drug, and MTT assays were performed at the end of the fourth day. […] All assays were performed at least twice in six replicate wells.
In general terms: Tetrazolium dyes change colour on reduction, which living cells bring about.

The subject of test [7] is KB3-1 cells. Nature of the test: MTT cytotoxicity assay, KB3-1. To be noted: continuous exposure for four days, means of at least two determinations ± standard deviation, read-out: IC50, KB3-1 wt. The format is cell-based, human. As to the method:
as §3, §4

The next test relates to several tumor cell lines. To be noted: ref [18],[20]; read-out: average IC50 towards several tumor cell lines; cited from earlier work.
Description: as §2

Each structure is given as a SMILES string. Where “and” joins values, the source holds several entries; their conditions need not be identical. Identical values can stand only once. Like-named read-outs stand apart in the source and are kept apart here. Marks after values point to notes of the source that are not given here.

For `CN(C)CCc1cc2cc(c1)CNC(=O)c1coc(n1)-c1coc(n1)-c1cccc(n1)-c1nc(co1)-c1nc(co1)C(=O)NC2` [Compound 2], in test [1], the “ΔTtran, hTel quadruplex DNA” value was 20.5 °C and 20.5 ^b °C. In addition, the “ΔTtran, salmon testes duplex DNA” value in test [2] is 0 ^b °C. In addition, the IC50 was 90 to 180 nM in the test on RPMI 8402 cells [3] (range given for analogs 1 and 2 together, read-out: IC50 against RPMI 8402 cells); 180 nM in the test on RPMI 8402 cells [3] (read-out: IC50, RPMI 8402); 30 to 40 nM with KB3-1 cells [4] (range given for analogs 1 and 2 together, read-out: IC50 against KB3-1 cells); 40 nM with KB3-1 cells [4] (read-out: IC50, KB3-1 wt.). Also, in test [5], the “%T/C (average tumor volumes of treated/control animals)” value is on record as 27.7%.
On to `CC(C)[C@@H]1NC(=O)c2coc(n2)-c2coc(n2)-c2coc(n2)[C@H](C(C)C)NC(=O)c2coc(n2)-c2coc(n2)-c2coc1n2` [HXDV, reference compound], for which the concentration for half-maximal inhibition (IC50) in the test on RPMI 8402 cells [6] was 540 ± 120 nM; in the test on KB3-1 cells [7] it was 350 ± 80 nM; with several tumor cell lines it was 500 nM. In test [2], the “ΔTtran, salmon testes duplex DNA” value was 0 ^b °C.
